Measurements from patent US20240366606A1, “MRGPRX2 ANTAGONISTS AND USES THEREOF” (The Regents of the University of California, priority 2021, published 2024).
Blank lines part the entries; values can stand above or below the compound they belong to.

What was measured:
MRGPRX4 [1] = molecular target: T1, MRGPRX4 (Homo sapiens (Human), UniProt Q96LA9); assay: MRGPRX4 agonist activity (FLIPR Ca2+ assay, concentration-response); assay type: cell-based
Experimental: FLIPR Ca2+ assay. Tetracycline inducible MRGPRX2 or MRGPRX4 stable cells [Flp-In™ T-REx™-293 cell which is derived from HEK 293 cells (ATCC, CRL 1573)] were maintained in DMEM containing 10% (v/v) FBS, 100 units ml^−1 penicillin G, 100 μg ml^−1 streptomycin, 100 μg ml^−1 hygromycin B, and 15 μg ml^−1 blasticidin ^16. NK1 stably expressing cell were maintained in DMEM containing 10% (v/v) FBS, 100 units ml^−1 penicillin G and 100 μg ml^−1 streptomycin. On the day of assay, cells were plated into Poly-L-Lysine (PLL) coated 384-well black clear bottom cell culture plates with DMEM buffer, which is composed of 1% (v/v) dialyzed FBS, 100 units ml^−1 penicillin G, 100 μg ml^−1 streptomycin with 1 μg ml^−1 tetracycline at density of 20,000 cells in 40 μl per well for overnight. For NK1 stable cells, the same media used for MRGPRX2 or MRGPRX4 cells except the tetracycline were used. […] Once loaded in FLIPR (Molecular Devices), basal fluorescence was measured for 10 s, then 10 μl of test compounds were added followed by continued fluorescence measurement for an additional 120 s. […] Data were normalized to % reference compound stimulation and analyzed using nonlinear regression “log(agonist) vs. response” in GraphPad Prism 9.0.

MRGPRX4 [2] = molecular target: MRGPRX4 (Homo sapiens, UniProt Q96LA9, Y130A); assay: Mutagenesis of MRGPRX4, agonist-stimulated Gq activation; assay type: cell-based
Experimental: (§1) Bioluminescence resonance energy transfer assay 2 (BRET2). To measure the receptor mediated G protein activation, HEK293T cells were plating either in six-well dishes containing 350-400 k cells per well, or 10-cm dishes at approximately 2 million per dish 20-24 h prior to transfection. The cells were then transfected with a 1:1:1:1 ratio of the receptor:GurLuc8:Gβ:GγGFP DNA. Transit 2020 (Mirus biosciences) was used to complex the DNA at a ratio of 3 μL Transit/μg DNA, in OptiMEM (GIBCO) at a concentration of 10 ng DNA per μL OptiMEM. After 24 h, the cells were plated in poly-L-lysine coated 96-well white clear bottom cell culture plates in plating media (DMEM+1% dialyzed FBS) at a density of 40-50,000 cells in 200 μl per well and incubated overnight. The next day, the media was carefully aspirated and cells were washed once with 60 μl of drug buffer (1×HBSS, 20 mM HEPES, 0.1% (w/v) BSA, pH 7.4), then 60 μl drug buffer containing coelenterazine 400a (nanolight technology) at 5 μM final concentration was added to each well and incubate for 5 min. Cells were then treated with 30 μl of 3× designated drug for an additional 5 minutes. After drug incubation, plates were read in an LB940 Mithras plate reader (Berthold Technologies) with a 395 nm (RLuc8-coelenterazine 400a) and 510 nm (GFP2) emission filters, at 1 s integration times. Each plate was read four times, and measurements from the fourth read were used in all analyses. BRET ratio was computed as the ratio of the GFP2 emission to rLuc8 emission. Data were normalized to % WT stimulation with indicated reference agonist and analyzed using nonlinear regression “log(agonist) vs. response” in GraphPad Prism 9.0. Log(agonist) vs normalized response—variable slope was used for (R)-ZINC-3573 pocket mutations (D184 Å, E164 Å, W243 Å, F244 Å, L247 Å, and W248 Å).

MRGPRX4 [3] = molecular target: MRGPRX4 (Homo sapiens, UniProt Q96LA9, L83S); assay: as above; assay type: cell-based
Experimental: as §1

320 GPCRs = assay: PRESTO-Tango GPCRome screening; assay type: cell-based; details: 3 μM
Experimental: GPCRome Screening. Screening of compounds against the PRESTO-Tango GPCRome was accomplished using previously described methods with several modifications (63). First, HTLA cells were plated in white 384-well clear bottom plates (Greiner) in DMEM (Sigma) with 1% (v/v) dialyzed FBS and 10 U per mL penicillin-streptomycin (Gibco). After 24 h, the cells were transfected using PEI (Sigma) with an in-plate adapted method (64). Briefly, 17 ng per well PRESTO-Tango GPCR DNAs were resuspended in OptiMEM (Gibco) and hybridized with PEI prior to dilution and distribution into 384-well plates and subsequent addition to cells. After overnight incubation, MS47134 at 5× final concentration (3 μM) diluted in DMEM with 1% (v/v) dialyzed FBS were added to cells without replacement of the medium for 18-20 h. On the day of assay, medium and drug solution were dumped and loaded with 20 ul per well of Bright-Glo reagent (Promega). Plates were incubated for 20 min in the dark and the luminescence was counted for cells using SpectraMax Luminescence reader. Dopamine receptor D2 serves as an assay control with 0.1 mM Quinpirole. Data were analyzed using GraphPad Prism 9.0.

[4] = molecular target: Kir6.2/SUR1 potassium channel (Homo sapiens (Human), UniProt Q09428+Q14654); assay: Electrophysiology of Kir6.2/SUR1 in HEK293 cells; assay type: cell-based; details: compared to nateglinide
Experimental: Electrophysiology. HEK293 cells were cultured in DMEM with 4.5 g L-^1 glucose, L-glutamine, and sodium pyruvate (Mediatech) containing 10% (v/v) FBS (Axenia BioLogix) and 1% (v/v) penicillin-streptomycin, at 37° C. and with 5% CO2. Cells were lifted with trypsin-EDTA (Life Technologies) and passaged to 6-well plates (Warner Instruments) 3-4 d before recording. Transient transfection was performed with Lipofectamine 2000 (Thermo Fisher Scientific) 2 days before recording. The plasmids of human Kir6.2 and SUR1 were the gift from Dr. Show-Ling Shyng (Oregon Health and Science University), and we fused mCherry fluorescent protein to the C-terminus of Kir6.2. The vector ratio for co-transfection of Kir6.2 to SUR1 was 1:10. Before recording, cells were lifted with trypsin-EDTA, kept in modified Tyrode's saline (140 mM NaCl, 5 mM KCl, 10 mM HEPES, 2 mM CaCl2), 1 mM MgCl2, 10 mM glucose, pH 7.2 ˜ 7.3 with HCl), and were used within 8 hours. For recording, an aliquot of cells was transferred to a recording chamber on a Nikon-TE2000 Inverted Scope (Nikon Instruments), and transfection was confirmed with fluorescent microscopy. The pipette solution contained: 145 mM KCl, 1 mM MgCl2, 5 mM EGTA, 2 mM CaCl2), 20 mM HEPES, 0.3 mM K2-ATP and 0.3 mM K2-ADP. Patch borosilicate pipettes (Sutter Instrument) were pulled from a Sutter P-97 puller with resistances of 2-3 MΩ. […]

MRGPRX4 [5] = molecular target: T1, MRGPRX4; details: previously identified (ref. 17); cited from earlier work
MRGPRX2 [6] = molecular target: MRGPRX2 (Homo sapiens, UniProt Q96LB1, F170A); assay: BRET2 Gq activation, MRGPRX2 pocket mutants, HEK293T cells; assay type: cell-based
Experimental: as §1

MRGPRX2 [7] = molecular target: MRGPRX2 (Homo sapiens, UniProt Q96LB1, W243A); assay: as above; assay type: cell-based
Experimental: as §1

MRGPRX2 [8] = assay: as above; assay type: cell-based, human
Experimental: as §1

T1 sequence (Q96LA9 whole entry): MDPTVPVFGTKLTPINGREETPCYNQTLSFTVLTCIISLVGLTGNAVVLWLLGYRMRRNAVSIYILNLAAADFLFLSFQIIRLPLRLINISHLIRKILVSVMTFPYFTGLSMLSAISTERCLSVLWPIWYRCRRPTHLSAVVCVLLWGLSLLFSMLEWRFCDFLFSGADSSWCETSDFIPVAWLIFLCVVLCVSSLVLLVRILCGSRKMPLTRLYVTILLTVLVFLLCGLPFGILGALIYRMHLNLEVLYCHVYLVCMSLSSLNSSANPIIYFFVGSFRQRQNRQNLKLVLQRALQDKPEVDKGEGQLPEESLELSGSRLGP
Chain of Kir6.2/SUR1 potassium channel (Q09428 whole entry, the tested form may be a part): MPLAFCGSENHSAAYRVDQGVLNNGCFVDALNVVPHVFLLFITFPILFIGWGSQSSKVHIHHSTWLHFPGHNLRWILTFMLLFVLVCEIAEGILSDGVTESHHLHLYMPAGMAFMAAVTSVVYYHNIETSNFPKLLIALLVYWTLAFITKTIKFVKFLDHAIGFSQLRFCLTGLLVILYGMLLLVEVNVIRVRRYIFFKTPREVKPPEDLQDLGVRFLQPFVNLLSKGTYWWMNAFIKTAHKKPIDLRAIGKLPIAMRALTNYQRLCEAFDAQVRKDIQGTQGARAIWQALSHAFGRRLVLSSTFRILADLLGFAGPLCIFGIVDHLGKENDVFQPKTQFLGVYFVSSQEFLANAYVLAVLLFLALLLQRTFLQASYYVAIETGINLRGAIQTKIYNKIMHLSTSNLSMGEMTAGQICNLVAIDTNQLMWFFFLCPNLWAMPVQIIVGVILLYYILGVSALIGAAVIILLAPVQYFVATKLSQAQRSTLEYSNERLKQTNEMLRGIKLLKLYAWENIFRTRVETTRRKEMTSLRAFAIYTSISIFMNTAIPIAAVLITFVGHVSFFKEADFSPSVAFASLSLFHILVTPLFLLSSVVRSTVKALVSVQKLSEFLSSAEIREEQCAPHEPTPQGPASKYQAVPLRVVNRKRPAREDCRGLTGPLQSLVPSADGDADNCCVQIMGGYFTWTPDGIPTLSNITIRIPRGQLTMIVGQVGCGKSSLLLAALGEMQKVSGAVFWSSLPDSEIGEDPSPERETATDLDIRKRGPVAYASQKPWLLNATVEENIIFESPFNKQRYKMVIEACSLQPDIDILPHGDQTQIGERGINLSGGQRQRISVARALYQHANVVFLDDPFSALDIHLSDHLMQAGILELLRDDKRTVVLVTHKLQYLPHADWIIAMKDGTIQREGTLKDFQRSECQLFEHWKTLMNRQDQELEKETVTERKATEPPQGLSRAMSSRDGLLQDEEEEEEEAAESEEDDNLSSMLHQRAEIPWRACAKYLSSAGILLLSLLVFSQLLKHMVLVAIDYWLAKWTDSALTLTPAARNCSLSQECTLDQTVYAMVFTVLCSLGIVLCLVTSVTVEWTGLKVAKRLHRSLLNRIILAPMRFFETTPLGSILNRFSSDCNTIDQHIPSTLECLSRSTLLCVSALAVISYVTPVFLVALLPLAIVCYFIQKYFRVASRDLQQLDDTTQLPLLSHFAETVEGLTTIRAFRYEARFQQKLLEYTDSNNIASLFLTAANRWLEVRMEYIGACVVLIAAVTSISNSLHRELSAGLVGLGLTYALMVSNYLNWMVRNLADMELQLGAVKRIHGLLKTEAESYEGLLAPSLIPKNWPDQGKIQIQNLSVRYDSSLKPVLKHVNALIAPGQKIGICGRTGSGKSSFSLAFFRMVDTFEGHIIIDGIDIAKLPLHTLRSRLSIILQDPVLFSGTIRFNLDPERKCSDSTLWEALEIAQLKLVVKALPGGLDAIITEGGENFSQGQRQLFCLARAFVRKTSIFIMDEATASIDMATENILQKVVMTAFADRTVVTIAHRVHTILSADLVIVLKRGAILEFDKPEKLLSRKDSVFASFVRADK
Chain of Kir6.2/SUR1 potassium channel (Q14654 whole entry, the tested form may be a part): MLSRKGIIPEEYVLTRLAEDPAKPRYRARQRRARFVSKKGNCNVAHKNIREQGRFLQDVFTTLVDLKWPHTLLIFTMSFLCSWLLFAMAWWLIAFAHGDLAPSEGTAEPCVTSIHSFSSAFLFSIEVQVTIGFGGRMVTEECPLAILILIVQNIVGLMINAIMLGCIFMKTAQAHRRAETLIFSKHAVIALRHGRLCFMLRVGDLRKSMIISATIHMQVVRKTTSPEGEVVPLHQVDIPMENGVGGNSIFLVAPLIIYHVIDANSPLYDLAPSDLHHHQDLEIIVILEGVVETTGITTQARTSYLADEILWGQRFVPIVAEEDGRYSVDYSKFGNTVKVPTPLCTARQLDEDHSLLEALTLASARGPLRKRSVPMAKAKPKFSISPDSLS

EC50 (MRGPRX4 [1]): 150 nM
improved selectivity for MRGPRX4 over the Kir6.2/SUR1 potassium channel [4]: 47 fold
Compound: C[C@]12CC3CC(C(=O)N[C@H](Cc4ccccc4)C(=O)O)(C1)C[C@@](C)(C3)C2 [MS47134]
effect of Y130(ICL2)A mutation on potency of Gq activation (MRGPRX4 [2]): reduced the potency
effect of L83S mutation on potency (MRGPRX4 [3]): greatly attenuated the potency
off-target profiling at 320 GPCRs (320 GPCRs): activity only at MRGPRX4 and MRGPRX1

Compound: CC(C)[C@H]1CC[C@H](C(=O)N[C@H](Cc2ccccc2)C(=O)O)CC1 [nateglinide, reference compound]
agonist potency at MRGPRX4 (MRGPRX4 [5]): low micromolar agonist
effect of L83S mutation on potency (MRGPRX4 [3]): greatly attenuated the potency

reduction of potency by F170(ECL2)A mutation (MRGPRX2 [6]): 7 fold
effect of W243(6.55)A substitution on activity (MRGPRX2 [7]): completely reduced the activity
Compound: cortistatin-14

Compound: CN(C)[C@@H]1CCN(c2cc(-c3ccccc3)nc3ccnn23)C1 [(R)-ZINC-3573]
effect of substitution of D184(5.38) and E164(4.60) on efficacy (MRGPRX2 [8]): impaired the efficacy
